Each structure is given as a SMILES string.

For orientation: IC50 means the concentration at which inhibition is half-maximal. A high value points to a need for much substance.

This assay concerns the target T1, 20S catalytic subunit of the proteasome (multicatalytic proteinase complex) (Bos taurus, UniProt Q32KL2).
T1 construct: was purified to homogeneity from bovine brain according to published methods; from tissue; host or cells: bovine brain
As to the kind of experiment: 20S proteasome chymotryptic activity, fluorogenic peptide cleavage. It is filed as biochemical, bovine. As to conditions: 50 μM succinyl-leu-leu-val-tyr-7-amino-4-methyl coumarin, 15 minutes at 37° C, pH7.5. As for the experimental part:
Compounds of this invention prepared according to the method of Example 1 were tested as follows. The 20S catalytic subunit of the proteasome (also known as the multicatalytic proteinase complex) was purified to homogeneity from bovine brain according to published methods (Wilk S. and Orlowski, M, 40 842 J. Neurochem (1983)). The chymotryptic activity of the complex is measured by the increase in fluorescence following cleavage of the substrate peptide succinyl-leucine-leucine-valine-tyrosine-7-amino-4-methyl coumarin. The standard in vitro assay consists of 2 μg 20S proteasome, 0.1-100 μg/ml proteasome inhibitor in 200 μl 50 mM HEPES, containing 0.1% sodium dodecyl sulphate, pH7.5. The proteolytic reaction is initiated by the addition of 50 μM fluorogenic peptide substrate and allowed to progress for 15 minutes at 37° C. The reaction is terminated by the addition of 100 μl of 100 mM acetate buffer, pH4.0. The rate of proteolysis is directly proportional to the amount of liberated aminomethylcoumarin which is measured by fluorescent spectroscopy (EX 370 nm, EM 430 nm).
Regarding `CC(C)CC(NC(=O)CC1CC(=O)c2ccccc21)C(=O)NC(CC(C)C)C(=O)NCC(N)=O` (mixture of isomers) [Compound 159], the IC50 is over 10 µg/mL.
In the case of `COc1ccc2c(c1)C(CC(=O)NC(CC(C)C)C(=O)NC(C)(C)C(N)=O)CC2=O` (mixture of isomers) [Compound 28] it was over 10 µg/mL; in that of `COc1ccc2c(c1)C(CC(=O)NC(CC(C)C)C(=O)NC(Cc1ccccc1)C(N)=O)CC2=O` (mixture of isomers) [Compound 56], over 10 µg/mL.
Molecule `COc1ccc2c(c1)C(CC(=O)NC(Cc1ccccc1)C(N)=O)CC2=O` (mixture of isomers) [Compound 24] had an IC50 of over 10 µg/mL.
As for `COc1ccc2c(c1)C(CC(=O)NC(Cc1ccccc1)C(=O)NC(CC(C)C)C(N)=O)CC2=O` (mixture of isomers) [Compound 14], the half-inhibitory concentration (IC50) was over 10 µg/mL.
In the case of `COc1ccc2c(c1)C(CC(=O)NCc1ccc3c(c1)OCO3)CC2=O` (racemic) [Compound 163] it was over 50 µg/mL; in that of `COc1ccc2c(c1)C(CC(=O)NC(C)C(=O)NC(CC(C)C)C(N)=O)CC2=O` (mixture of isomers) [Compound 59], over 10 µg/mL; in that of `COc1ccc2c(c1)C(CC(=O)NC(CC(C)C)C(=O)NC(CC(C)C)C(N)=O)CC2=O` (mixture of isomers) [Compound 7], over 10 µg/mL.
In the case of `COc1ccc2c(c1)C(CC(=O)NC(CC(C)C)C(=O)NC(CC(C)C)C(=O)NCC(N)=O)CC2=O` (mixture of isomers) [Compound 18] it was 5 µg/mL; in that of `COc1ccc2c(c1)C(CC(=O)NC(CC(C)C)C(=O)NC(CC(N)=O)C(N)=O)CC2=O` (mixture of isomers) [Compound 131], over 10 µg/mL.
`COc1ccc2c(c1)C(CC(=O)NCc1ccccn1)CC2=O` (centres unmarked) [Compound 114] returned an IC50 of over 10 µg/mL.
With `COc1ccc2c(c1)C(CC(=O)N1CCC(O)C1)CC2=O` (centres unmarked) [Compound 109], the concentration for half-maximal inhibition (IC50) was over 10 µg/mL.
`COc1ccc2c(c1)C(CC(=O)NC(CC(C)C)C(=O)NC(C)C(N)=O)CC2=O` (mixture of isomers) [Compound 53] registered an IC50 of over 10 µg/mL.
The result for `COc1ccc2c(c1)C(CC(=O)NC(CC1CCCCC1)C(N)=O)CC2=O` (mixture of isomers) [Compound 29] reads over 10 µg/mL.
In the case of `COc1ccc2c(c1)C(CC(=O)NC(CC(C)C)C(=O)NC(CC(C)C)C(=O)NCCc1ccccc1)CC2=O` (mixture of isomers) [Compound 185] it was over 10 µg/mL.
In the case of `CCCC(NC(=O)CC1CC(=O)c2ccc(OC)cc21)C(=O)NC(CC(C)C)C(=O)NCC(N)=O` (mixture of isomers) [Compound 44] it was over 10 µg/mL.
Regarding `COc1ccc2c(c1)C(CC(=O)NC(CC(C)C)C(=O)NC(CC(C)C)C(N)=O)CC2=O` (mixture of isomers) [Compound 2], the IC50 was found to be 1 µg/mL.
In the case of `COc1ccc2c(c1)C(CC(=O)NCc1ccc3c(c1)OCO3)CC2=O` (centres unmarked) [Compound 80], the half-maximal inhibitory concentration (IC50) is over 10 µg/mL.
In the case of `COc1ccc2c(c1)C(CC(=O)NCC(O)CO)CC2=O` (centres unmarked) [Compound 111] it was over 10 µg/mL; in that of `COc1ccc2c(c1)C(CC(=O)Nc1nc(O)c(C)c(O)n1)CC2=O` (centres unmarked) [Compound 145], over 10 µg/mL.
With `COc1ccc2c(c1)C(CC(=O)NCc1ccccc1)CC2=O` (centres unmarked) [Compound 38], the IC50 was over 10 µg/mL.
In the case of `COc1ccc2c(c1)C(CC(=O)Nc1c(C)cccc1[N+](=O)[O-])CC2=O` (racemic) [Compound 153] it was over 10 µg/mL; in that of `COc1ccc2c(c1)C(CC(=O)NC(CC(C)C)C(=O)NC(Cc1c[nH]cn1)C(N)=O)CC2=O` (mixture of isomers) [Compound 4], over 10 µg/mL.
In turn, `COc1ccc2c(c1)C(CC(=O)NC(Cc1c[nH]cn1)C(=O)NC(CC(C)C)C(N)=O)CC2=O` (mixture of isomers) [Compound 99] had an IC50 of over 10 µg/mL.
Take `COc1ccc2c(c1)C(CC(=O)NC(CC(C)C)C(=O)NC(CC(C)C)C(=O)N(C)Cc1ccccc1)CC2=O` (mixture of isomers) [Compound 180]: the IC50 is over 10 µg/mL.
In the case of `CCCCC(NC(=O)CC1CC(=O)c2ccc(OC)cc21)C(N)=O` (mixture of isomers) [Compound 8] it was over 10 µg/mL.
The result for `COc1ccc2c(c1)C(CC(=O)NC(CC(C)C)C(=O)NC(CC(C)C)C(=O)NCc1ccc([N+](=O)[O-])cc1)CC2=O` (mixture of isomers) [Compound 195] reads 10 µg/mL; that for `COCCNC(=O)CC1CC(=O)c2ccc(OC)cc21` (centres unmarked) [Compound 117], over 10 µg/mL.
In the case of `COc1ccc2c(c1)C(CC(=O)NC(CC(C)C)C(=O)NCC(=O)NCC(N)=O)CC2=O` (mixture of isomers) [Compound 41] it was over 10 µg/mL.
On to `COc1ccc2c(c1)C(CC(=O)NC1CCC1)CC2=O` (centres unmarked) [Compound 69], for which the 50% inhibitory concentration (IC50) is over 10 µg/mL.
For the molecule `COc1ccc2c(c1)C(CC(=O)NC(CC(C)C)C(=O)NC(CC(C)C)C(=O)NCC(N)=O)CC2=O` (mixture of isomers) [Compound 17], the 50% inhibitory concentration (IC50) was over 10 µg/mL.
As for `COc1ccc2c(c1)C(CC(=O)NC(Cc1ccccc1)C(N)=O)CC2=O` (mixture of isomers) [Compound 12], the IC50 was over 10 µg/mL.
In the case of `COc1ccc2c(c1)C(CC(=O)NC(CC(N)=O)C(=O)NC(CC(C)C)C(N)=O)CC2=O` (mixture of isomers) [Compound 96] it was over 10 µg/mL; in that of `COc1ccc2c(c1)C(CC(=O)NC(Cc1ccc(O)cc1)C(=O)NC(CC(C)C)C(N)=O)CC2=O` (mixture of isomers) [Compound 102], over 10 µg/mL; in that of `COc1ccc2c(c1)C(CC(=O)NC(CC(C)C)C(=O)NC(CC(C)C)C(=O)N(Cc1ccccc1)Cc1ccccc1)CC2=O` (mixture of isomers) [Compound 177], 1 µg/mL.
In the case of `COc1ccc2c(c1)C(CC(=O)NCCN1CCCC1)CC2=O` (centres unmarked) [Compound 112] it was over 10 µg/mL; in that of `COc1ccc2c(c1)C(CC(=O)NC(CO)C(O)c1ccccc1)CC2=O` (mixture of isomers) [Compound 165], over 50 µg/mL.
In the case of `CCCC(NC(=O)CC1CC(=O)c2ccc(OC)cc21)C(=O)NC(CC(C)C)C(N)=O` (mixture of isomers) [Compound 58], the IC50 was over 10 µg/mL.
Regarding `COc1ccc2c(c1)C(CC(=O)NC(C(=O)NC(CC(C)C)C(N)=O)c1ccccc1)CC2=O` (mixture of isomers) [Compound 37], the IC50 was over 10 µg/mL.
As to `CCCCC(NC(=O)C(CC(C)C)NC(=O)CC1CC(=O)c2ccc(OC)cc21)C(N)=O` (mixture of isomers) [Compound 134], the IC50 was over 10 µg/mL.
Take `COc1ccc2c(c1)C(CC(=O)NC(C(=O)NC(CC(C)C)C(=O)NCC(N)=O)C(C)C)CC2=O` (mixture of isomers) [Compound 47]: the IC50 was over 10 µg/mL.
The result for `COc1ccc2c(c1)C(CC(=O)N(CCO)Cc1ccccc1)CC2=O` (racemic) [Compound 166] reads over 50 µg/mL.
The result for `COc1ccc2c(c1)C(CC(=O)NC1CCc3ccccc31)CC2=O` (centres unmarked) [Compound 83] reads over 10 µg/mL.
In the case of `COc1ccc2c(c1)C(CC(=O)NC(CC(C)C)C(=O)NC(CCCCN)C(N)=O)CC2=O` (mixture of isomers) [Compound 138] it was over 10 µg/mL.
Take `COc1ccc2c(c1)C(CC(=O)NCCO)CC2=O` (centres unmarked) [Compound 84]: the IC50 is over 10 µg/mL.
With `CCCC(NC(=O)CC1CC(=O)c2ccc(OC)cc21)C(N)=O` (mixture of isomers) [Compound 10], the IC50 is over 10 µg/mL.
The result for `COc1ccc2c(c1)C(CC(=O)N1CCCC1C(=O)NC(CC(C)C)C(=O)NCC(N)=O)CC2=O` (mixture of isomers) [Compound 49] reads over 10 µg/mL; that for `COc1ccc(CNC(=O)CC2CC(=O)c3ccc(OC)cc32)cc1` (centres unmarked) [Compound 85], over 10 µg/mL; that for `COc1ccc2c(c1)C(CC(=O)NCCCc1ccccc1)CC2=O` (centres unmarked) [Compound 66], over 10 µg/mL.
In the case of `COc1ccc2c(c1)C(CC(=O)NC(CC(C)C)C(=O)NC(Cc1c[nH]c3ccccc13)C(N)=O)CC2=O` (mixture of isomers) [Compound 136] it was over 10 µg/mL; in that of `COc1ccc2c(c1)C(CC(=O)NCC(=O)NCC(=O)NCC(N)=O)CC2=O` (centres unmarked) [Compound 40], over 10 µg/mL; in that of `COc1ccc2c(c1)C(CC(=O)N(CCC#N)Cc1cccnc1)CC2=O` (centres unmarked) [Compound 116], over 10 µg/mL.
In the case of `CCCCC(NC(=O)CC1CC(=O)c2ccc(OC)cc21)C(=O)NC(CC(C)C)C(N)=O` (mixture of isomers) [Compound 15] it was over 10 µg/mL; in that of `COc1ccc2c(c1)C(CC(=O)N(C)Cc1ccccc1)CC2=O` (centres unmarked) [Compound 73], over 10 µg/mL; in that of `COc1ccc2c(c1)C(CC(=O)NCCc1ccc(OC)c(OC)c1)CC2=O` (centres unmarked) [Compound 72], over 10 µg/mL.
Molecule `COc1ccc2c(c1)C(CC(=O)NC(CC(C)C)C(=O)NCCC(C)C)CC2=O` (mixture of isomers) [Compound 200] registered an IC50 of over 10 µg/mL.
